System: hyperglycemic rats
Assay: OCT in hyperglycemic rat diabetic retinopathy model (aneurysms, layer thickness)
Format: in vivo, SD rats (spontaneously hyperglycemic strain)
From the text: Hyperglycemic Rat Diabetic Retinopathy Model—A spontaneously hyperglycemic strain of SD rats, which developed clinical signs of diabetic retinopathy within 4 weeks of birth were identified and isolated within the Vernon Jansen Animal Research Unit, Faculty of Medical and Health Sciences at the University of Auckland. The identification of these rats presenting with hyperglycemia and microaneurysms provided an opportunity to treat a complex, chronic disease model and assess the treatment effect based upon objective, measurable endpoints, despite lacking precise information on the etiology of the disease. Inbreeding was carried out over three generations and eyes were screened for abnormalities between 4-8 weeks of age. Additional information about these rats is presented as supplementary information. Glucose levels were tested in non-fasting rats (Lee J J, Yi H Y, Yang J W, Shin J S, Kwon J H, Kim C W. Characterization of streptozotocin-induced diabetic rats and pharmacodynamics of insulin formulations. Biosci Biotechnol Biochem. 2003; 67:2396-401) using a Freestyle Optium Glucometer (Abbott Laboratories Ltd., UK) and Freestyle Optium glucose strips.
Ten rats per group were the selected (10 normal SD and 10 hyperglycemic) grown to 5 weeks of age and assessed using OCT and ERG. The hyperglycemic rat group was then split into two subgroups of five, with one subgroup fed tonabersat once daily for 14 days from weeks 5 to 7 at a low dose level of 0.28 mg/kg in 0.5 g peanut butter, with the other subgroup fed 0.5 g peanut butter only. All animals were assessed again using ERG and OCT at 8 weeks of age before euthanizing animals and removing the eyes for immunohistochemical analysis. Data groups were randomized prior to the statistical comparison. In summary, normal SD and hyperglycemic rats were analyzed with OCT and ERG at 5 weeks of age; the hyperglycemic rats were then split into two groups and fed the vehicle or tonabersat for 14 days during weeks 6 and 7 of age. At week 8, animals were again assessed with ERG and OCT and tissues collected for immunohistochemical analysis. Four tonabersat-treated rats were, however, left until 3 months of age before final ERG and OCT and tissue collection.
Evans Blue Dye Assessment of Vessel Leak—To investigate whether micro- and macro-aneurysms in the hyperglycemic rat retinas (observed using OCT) reflect sites of vessel leak, rats were perfused at the age of 3 months with Evans Blue dye as previously described. Cai S, Yang Q, Hou M, Han Q, Zhang H, Wang J, et al. Alpha-Melanocyte-Stimulating Hormone Protects Early Diabetic Retina from Blood-Retinal Barrier Breakdown and Vascular Leakage via MC4R. Cell Physiol Biochem. 2018; 45:505-22. Briefly, Evans Blue dye (30 mg/ml; Sigma-Aldrich, USA) was dissolved in normal saline and filtered. The dye was delivered as an injection into the rat-tail vein of normal SD and hyperglycemic rats at 45 mg/kg and allowed to circulate for 2 hours. Eyes were enucleated while rats were under deep anesthesia and an intracardial injection of 3M KCl was then administered rapidly to euthanize the animals. The posterior segment cups were fixed whole in 4% paraformaldehyde for 30 min and the retinas removed and laid flat. Evans Blue was stimulated at 559 nm wavelength and visualized by its red fluorescence emission using Olympus FluoView FV1000 (Olympus Corporation, Tokyo, Japan). […]

[1] = 0.28 mg/kg once daily 14 days, week 8

CC(=O)c1ccc2c(c1)[C@H](NC(=O)c1ccc(F)c(Cl)c1)[C@H](O)C(C)(C)O2 [tonabersat, N-[(3S,4S)-6-acetyl-3-hydroxy-2,2-dimethyl-3,4-dihydrochromen-4-yl]-3-chloro-4-fluorobenzamide]
number and size of microaneurysms after treatment [1]: differences | retinal layer thickness (INL or ONL) or thickness of the choroid, treated vs untreated [1]: no significant difference | hyperreflective spot on OCT after treatment (0.28 mg/kg once daily for 14 days, 8 weeks): barely visible | clinical signs, including the presence of aneurysms (DR model, daily treatment for two weeks): reduced | micro- and macro-aneurysms compared to placebo controls (oral, DR model): regression
